Values of other authors, collected in patent publication US20070098654A1, “Nail whitening composition” (L'OREAL, priority 2005, published 2007).

Details: at 20° C.

NC(N)=O.OO [Carbamide peroxide]
Solubility in water: about 500 g/l
